From PubChem BioAssay (NCI)
“And” between values parts separate entries of the source, which are not always exact repeats. Equal entries are not always repeated.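 Growth conditions: 96-well plates. Treatment: test compound, 48 hours, 5 concentrations. Analysis: linear interpolation between bracketing concentrations; unreached endpoints set to highest concentration. Here, GI50 denotes the concentration required for 50% inhibition of growth. TGI: concentration producing complete growth inhibition.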

Key:
Assay in all cases: NCI tumour cell line growth inhibition, 48 h
SR leukemia = test system: SR leukemia
OVCAR-4 ovarian = test system: OVCAR-4 ovarian
HCT-116 colon = test system: HCT-116 colon
SF-539 CNS = test system: SF-539 CNS
NCI/ADR-RES ovarian = test system: NCI/ADR-RES ovarian
M14 melanoma = test system: M14 melanoma
ACHN renal = test system: ACHN renal
UO-31 renal = test system: UO-31 renal
MALME-3M melanoma = test system: MALME-3M melanoma
HOP-62 NSCLC = test system: HOP-62 NSCLC
K-562 leukemia = test system: K-562 leukemia
MDA-MB-435 = test system: MDA-MB-435
EKVX NSCLC = test system: EKVX NSCLC
SK-OV-3 ovarian = test system: SK-OV-3 ovarian
U251 CNS = test system: U251 CNS
SNB-75 CNS = test system: SNB-75 CNS
786-0 renal = test system: 786-0 renal
MDA-MB-231 breast = test system: MDA-MB-231 breast
HT29 colon = test system: HT29 colon
UACC-62 melanoma = test system: UACC-62 melanoma
NCI-H522 lung = test system: NCI-H522 lung
KM12 colon = test system: KM12 colon
CAKI-1 renal = test system: CAKI-1 renal
MOLT-4 leukemia = test system: MOLT-4 leukemia
SK-MEL-5 melanoma = test system: SK-MEL-5 melanoma
BT-549 breast = test system: BT-549 breast
HS 578T breast = test system: HS 578T breast
SK-MEL-2 melanoma = test system: SK-MEL-2 melanoma
T-47D breast = test system: T-47D breast
HCC-2998 colon = test system: HCC-2998 colon
RPMI-8226 leukemia = test system: RPMI-8226 leukemia
NCI-H226 lung = test system: NCI-H226 lung
MCF7 breast = test system: MCF7 breast
HCT-15 colon = test system: HCT-15 colon
SF-295 CNS = test system: SF-295 CNS
SN12C renal = test system: SN12C renal
LOX IMVI melanoma = test system: LOX IMVI melanoma
TK-10 renal = test system: TK-10 renal
COLO 205 colon = test system: COLO 205 colon
SF-268 CNS = test system: SF-268 CNS
OVCAR-5 ovarian = test system: OVCAR-5 ovarian
HL-60(TB) leukemia = test system: HL-60(TB) leukemia
NCI-H23 lung = test system: NCI-H23 lung
OVCAR-3 ovarian = test system: OVCAR-3 ovarian
A498 renal = test system: A498 renal
SK-MEL-28 melanoma = test system: SK-MEL-28 melanoma
NCI-H460 lung = test system: NCI-H460 lung
SW-620 colon = test system: SW-620 colon
DU-145 prostate = test system: DU-145 prostate
HOP-92 NSCLC = test system: HOP-92 NSCLC
RXF 393 renal = test system: RXF 393 renal
SNB-19 CNS = test system: SNB-19 CNS
IGROV1 ovarian = test system: IGROV1 ovarian
CCRF-CEM leukemia = test system: CCRF-CEM leukemia
OVCAR-8 ovarian = test system: OVCAR-8 ovarian
UACC-257 melanoma = test system: UACC-257 melanoma

Cc1cn(Cc2ccc(C34CC5CC(CC(C5)C3)C4)c(O)c2)c(=O)[nH]c1=O
GI50 (SR leukemia): 3.16 µM
TGI (SR leukemia): 13.5 µM
GI50 (OVCAR-4 ovarian): 12.9 µM
TGI (OVCAR-4 ovarian): 32.1 µM
GI50 (HCT-116 colon): 10.7 µM
TGI (HCT-116 colon): 22.5 µM
GI50 (SF-539 CNS): 9.45 µM
TGI (SF-539 CNS): 23 µM
GI50 (NCI/ADR-RES ovarian): 11.3 µM
TGI (NCI/ADR-RES ovarian): 27.2 µM
GI50 (M14 melanoma): 11.5 µM
TGI (M14 melanoma): 26.9 µM
GI50 (ACHN renal): 10.8 µM
TGI (ACHN renal): 24.3 µM
GI50 (UO-31 renal): 11.6 µM
TGI (UO-31 renal): 23.8 µM
GI50 (MALME-3M melanoma): 14.6 µM
TGI (MALME-3M melanoma): 29.7 µM
GI50 (HOP-62 NSCLC): 12.9 µM
TGI (HOP-62 NSCLC): 25.6 µM
GI50 (K-562 leukemia): 2.99 µM
TGI (K-562 leukemia): 11 µM
GI50 (MDA-MB-435): 2.62 µM
TGI (MDA-MB-435): 9.02 µM
GI50 (EKVX NSCLC): 8.21 µM
TGI (EKVX NSCLC): 29.1 µM
GI50 (SK-OV-3 ovarian): 19.2 µM
TGI (SK-OV-3 ovarian): 44.3 µM
GI50 (U251 CNS): 11.9 µM
TGI (U251 CNS): 24.8 µM
GI50 (SNB-75 CNS): 11.2 µM
TGI (SNB-75 CNS): 29.6 µM
GI50 (786-0 renal): 12.6 µM
TGI (786-0 renal): 27 µM
GI50 (MDA-MB-231 breast): 15.5 µM
TGI (MDA-MB-231 breast): 31 µM
GI50 (HT29 colon): 11.1 µM
TGI (HT29 colon): 26.5 µM
GI50 (UACC-62 melanoma): 7.34 µM
TGI (UACC-62 melanoma): 20.4 µM
GI50 (NCI-H522 lung): 8.04 µM
TGI (NCI-H522 lung): 24.2 µM
GI50 (KM12 colon): 11.4 µM
TGI (KM12 colon): 26.2 µM
GI50 (CAKI-1 renal): 10.1 µM
TGI (CAKI-1 renal): 23.3 µM
GI50 (MOLT-4 leukemia): 7.5 µM
TGI (MOLT-4 leukemia): 27.5 µM
GI50 (SK-MEL-5 melanoma): 4.37 µM
TGI (SK-MEL-5 melanoma): 15.8 µM
GI50 (BT-549 breast): 8.7 µM
TGI (BT-549 breast): 20.8 µM
GI50 (HS 578T breast): 8.42 µM
TGI (HS 578T breast): 33.8 µM
GI50 (SK-MEL-2 melanoma): 14.1 µM
TGI (SK-MEL-2 melanoma): 32.2 µM
GI50 (T-47D breast): 6.45 µM
TGI (T-47D breast): 51.8 µM
GI50 (HCC-2998 colon): 9.45 µM
TGI (HCC-2998 colon): 21.4 µM
GI50 (RPMI-8226 leukemia): 1.79 µM
TGI (RPMI-8226 leukemia): 21 µM
GI50 (NCI-H226 lung): 15.4 µM
TGI (NCI-H226 lung): 29.9 µM
GI50 (MCF7 breast): 7.96 µM
TGI (MCF7 breast): 72.9 µM
GI50 (HCT-15 colon): 7.99 µM
TGI (HCT-15 colon): 20.5 µM
GI50 (SF-295 CNS): 4.56 µM
TGI (SF-295 CNS): 18.5 µM
GI50 (SN12C renal): 12.3 µM
TGI (SN12C renal): 25.4 µM
GI50 (LOX IMVI melanoma): 11.3 µM
TGI (LOX IMVI melanoma): 23.3 µM
GI50 (TK-10 renal): 14.7 µM
TGI (TK-10 renal): 32.2 µM
GI50 (COLO 205 colon): 16.4 µM
TGI (COLO 205 colon): 32.2 µM
GI50 (SF-268 CNS): 12.7 µM
TGI (SF-268 CNS): 41.8 µM
GI50 (OVCAR-5 ovarian): 16.1 µM
TGI (OVCAR-5 ovarian): 29.8 µM
GI50 (HL-60(TB) leukemia): 2.73 µM
TGI (HL-60(TB) leukemia): 6.53 µM
GI50 (NCI-H23 lung): 8.11 µM
TGI (NCI-H23 lung): 20.7 µM
GI50 (OVCAR-3 ovarian): 4.04 µM
TGI (OVCAR-3 ovarian): 16.3 µM
GI50 (A498 renal): 4.33 µM
TGI (A498 renal): 17.8 µM
GI50 (SK-MEL-28 melanoma): 6.78 µM
TGI (SK-MEL-28 melanoma): 23.7 µM
GI50 (NCI-H460 lung): 12.6 µM
TGI (NCI-H460 lung): 42.3 µM
GI50 (SW-620 colon): 8.59 µM
TGI (SW-620 colon): 20.9 µM
GI50 (DU-145 prostate): 13.7 µM
TGI (DU-145 prostate): 26.6 µM
GI50 (HOP-92 NSCLC): 14.4 µM
TGI (HOP-92 NSCLC): 29.5 µM
GI50 (RXF 393 renal): 1.82 µM
TGI (RXF 393 renal): 7.2 µM
GI50 (SNB-19 CNS): 13.9 µM
TGI (SNB-19 CNS): 31.1 µM

COc1ccc([C@@]23Oc4cc(OC)cc(OC)c4[C@]2(O)[C@H](O)[C@H](C(N)=O)[C@H]3c2ccccc2)cc1
TGI (IGROV1 ovarian): 0.0641 µM and < 0.0206 µM
GI50 (SR leukemia): 0.01 µM
GI50 (OVCAR-4 ovarian): 0.0142 µM
TGI (HCT-116 colon): 0.488 µM
TGI (SF-539 CNS): 0.0193 µM
GI50 (NCI/ADR-RES ovarian): 0.0504 µM
TGI (NCI/ADR-RES ovarian): 0.687 µM and 0.867 µM
TGI (M14 melanoma): 0.0233 µM and < 0.01 µM
TGI (ACHN renal): 0.0474 µM and 0.0476 µM
TGI (CCRF-CEM leukemia): > 100 µM
TGI (UO-31 renal): 0.0765 µM and 0.0995 µM
GI50 (MALME-3M melanoma): 0.0161 µM
TGI (MALME-3M melanoma): 0.0909 µM and < 0.01 µM
TGI (HOP-62 NSCLC): 0.216 µM and 0.0916 µM
GI50 (OVCAR-8 ovarian): < 0.0122 µM
TGI (K-562 leukemia): > 100 µM
TGI (MDA-MB-435): 0.0793 µM and 0.631 µM
TGI (EKVX NSCLC): 0.108 µM and 0.158 µM
TGI (U251 CNS): 0.612 µM and 0.194 µM
GI50 (SNB-75 CNS): < 0.01 µM
TGI (SNB-75 CNS): 0.119 µM
TGI (UACC-257 melanoma): 0.206 µM and < 0.0304 µM
GI50 (786-0 renal): 0.018 µM
TGI (786-0 renal): 0.291 µM
GI50 (MDA-MB-231 breast): 0.0175 µM
TGI (MDA-MB-231 breast): 0.126 µM and 0.0685 µM
TGI (HT29 colon): 0.0659 µM and 0.0515 µM
GI50 (UACC-62 melanoma): < 0.016 µM
TGI (UACC-62 melanoma): 0.106 µM
TGI (NCI-H522 lung): 0.0737 µM and < 0.0104 µM
TGI (KM12 colon): 0.0999 µM
TGI (CAKI-1 renal): 0.0838 µM
TGI (MOLT-4 leukemia): > 100 µM
TGI (SK-MEL-5 melanoma): 0.0329 µM and < 0.0139 µM
TGI (BT-549 breast): 0.0847 µM and < 0.0226 µM
GI50 (HS 578T breast): < 0.0135 µM
TGI (HS 578T breast): 0.0914 µM and < 0.01 µM
GI50 (SK-MEL-2 melanoma): < 0.0147 µM
TGI (SK-MEL-2 melanoma): 0.0556 µM and 0.0738 µM
TGI (T-47D breast): 0.21 µM and 0.0483 µM
TGI (HCC-2998 colon): 0.0697 µM and 0.0194 µM
TGI (NCI-H226 lung): 0.0935 µM and < 0.0283 µM
TGI (MCF7 breast): 0.112 µM
GI50 (HCT-15 colon): 0.0177 µM
TGI (HCT-15 colon): 0.33 µM and 0.229 µM
TGI (SF-295 CNS): 0.0456 µM and < 0.01 µM
GI50 (SN12C renal): < 0.0113 µM
TGI (SN12C renal): 0.0751 µM
GI50 (TK-10 renal): 0.0278 µM
TGI (TK-10 renal): 0.101 µM and 0.0367 µM
TGI (COLO 205 colon): 0.0286 µM and 0.0116 µM
GI50 (SF-268 CNS): < 0.0113 µM
TGI (SF-268 CNS): 0.0913 µM and < 0.01 µM
TGI (OVCAR-5 ovarian): 0.074 µM and < 0.0291 µM
GI50 (HL-60(TB) leukemia): < 0.01 µM
TGI (HL-60(TB) leukemia): 0.0785 µM
TGI (NCI-H23 lung): 0.0769 µM and 0.0157 µM
GI50 (OVCAR-3 ovarian): < 0.0129 µM
TGI (OVCAR-3 ovarian): 0.101 µM and 0.284 µM
GI50 (A498 renal): < 0.013 µM
TGI (A498 renal): < 0.0215 µM
GI50 (SK-MEL-28 melanoma): < 0.0116 µM
TGI (NCI-H460 lung): 0.19 µM
TGI (DU-145 prostate): 0.105 µM and < 0.0219 µM
GI50 (HOP-92 NSCLC): < 0.0153 µM
TGI (HOP-92 NSCLC): 0.317 µM and 0.0541 µM
GI50 (RXF 393 renal): < 0.0115 µM
TGI (RXF 393 renal): 0.0472 µM and 0.0136 µM
TGI (SNB-19 CNS): 0.0999 µM
